# Laboratory results: the supplement of paper PMC10307832
# Tests used:
# Test in all cases: relative viability (nuclei count vs DMSO), 5 days (fraction); higher = more cells survive
# Sorafenib + Luminespib = compound: CNC(=O)c1cc(Oc2ccc(NC(=O)Nc3ccc(Cl)c(C(F)(F)F)c3)cc2)ccn1 [Sorafenib] + CCNC(=O)c1noc(-c2cc(C(C)C)c(O)cc2O)c1-c1ccc(CN2CCOCC2)cc1 [Luminespib] (partner 0.01 µM)
# Method in brief: (§1)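 Lung cancer cell lines, seeded in 1536-well plates, were treated the following day by pin tool with a single drug or with five library-drug doses (not always all listed) in √10 steps on top of a fixed anchor-drug dose. Cells were fixed and nuclei stained in one step after 5 days, and nuclei were counted. Relative viability is the nuclei count for treated wells divided by that for vehicle wells, reported as medians of duplicate plates.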
# Sorafenib + Trametinib = compound: CNC(=O)c1cc(Oc2ccc(NC(=O)Nc3ccc(Cl)c(C(F)(F)F)c3)cc2)ccn1 [Sorafenib] + CC(=O)Nc1cccc(-n2c(=O)n(C3CC3)c(=O)c3c(Nc4ccc(I)cc4F)n(C)c(=O)c(C)c32)c1 [Trametinib] (partner 0.02 µM)
# Method in brief: as §1
# Sorafenib + Pemetrexed = compound: CNC(=O)c1cc(Oc2ccc(NC(=O)Nc3ccc(Cl)c(C(F)(F)F)c3)cc2)ccn1 [Sorafenib] + Nc1nc2[nH]cc(CCc3ccc(C(=O)N[C@@H](CCC(=O)O)C(=O)O)cc3)c2c(=O)[nH]1 [Pemetrexed] (partner 0.2 µM)
# Method in brief: as §1
# Sorafenib + Alpelisib = compound: CNC(=O)c1cc(Oc2ccc(NC(=O)Nc3ccc(Cl)c(C(F)(F)F)c3)cc2)ccn1 [Sorafenib] + Cc1nc(NC(=O)N2CCC[C@H]2C(N)=O)sc1-c1ccnc(C(C)(C)C(F)(F)F)c1 [Alpelisib] (partner 2 µM)
# Method in brief: as §1
# Sorafenib + Lapatinib = compound: CNC(=O)c1cc(Oc2ccc(NC(=O)Nc3ccc(Cl)c(C(F)(F)F)c3)cc2)ccn1 [Sorafenib] + CS(=O)(=O)CCNCc1ccc(-c2ccc3ncnc(Nc4ccc(OCc5cccc(F)c5)c(Cl)c4)c3c2)o1 [Lapatinib] (partner 2 µM)
# Method in brief: as §1
Cell Line,relative viability (Sorafenib + Luminespib; first compound 0.08 µM),relative viability (Sorafenib + Luminespib; first compound 0.253 µM),relative viability (Sorafenib + Luminespib; first compound 8 µM),relative viability (Sorafenib + Trametinib; first compound 0.08 µM),relative viability (Sorafenib + Trametinib; first compound 0.253 µM),relative viability (Sorafenib + Trametinib; first compound 2.53 µM),relative viability (Sorafenib + Trametinib; first compound 8 µM),relative viability (Sorafenib + Pemetrexed; first compound 0.08 µM),relative viability (Sorafenib + Pemetrexed; first compound 0.253 µM),relative viability (Sorafenib + Pemetrexed; first compound 2.53 µM),relative viability (Sorafenib + Pemetrexed; first compound 8 µM),relative viability (Sorafenib + Alpelisib; first compound 0.08 µM),relative viability (Sorafenib + Alpelisib; first compound 0.253 µM),relative viability (Sorafenib + Alpelisib; first compound 2.53 µM),relative viability (Sorafenib + Lapatinib; first compound 0.08 µM),relative viability (Sorafenib + Lapatinib; first compound 0.253 µM),relative viability (Sorafenib + Lapatinib; first compound 8 µM),relative viability (Sorafenib + Luminespib; first compound 2.53 µM),relative viability (Sorafenib + Alpelisib; first compound 8 µM),relative viability (Sorafenib + Lapatinib; first compound 2.53 µM)
201T,1.06,1.12,1.04,0.679,0.726,0.735,0.762,0.334,0.302,0.334,0.328,1,1.05,1.13,1.06,0.991,1.03,,,
A-427,0.971,0.951,0.831,0.731,0.754,0.551,0.383,0.926,0.919,1.05,0.954,1.08,1.07,1.06,1.04,0.948,1.06,0.757,0.925,1.01
ABC-1,0.815,0.378,0.158,,,,,,,,,1.01,0.945,1.11,1.25,1.19,0.726,0.538,1.03,1.23
BEN,0.439,0.173,0.0694,1.11,0.911,0.945,0.913,0.839,0.657,,0.674,1.1,0.889,0.906,0.857,0.675,0.614,0.2,0.798,0.782
CAL-12T,0.14,0.363,0.147,0.5,0.312,0.339,0.213,1.22,1.1,1.01,1.13,1.18,1.09,0.971,0.768,0.685,0.682,0.347,0.705,0.724
COR-L23,0.731,0.688,0.135,0.645,0.433,0.312,0.232,0.2,0.199,0.19,0.212,0.83,0.758,0.79,1.08,0.795,0.914,0.525,0.637,0.921
COR-L 105,1,,0.623,0.51,0.472,0.432,0.378,1.26,1.31,1.32,0.852,1.09,0.95,0.966,0.413,0.393,0.389,1.05,0.793,0.482
ChaGo-K-1,0.708,0.446,0.325,0.884,0.855,0.886,0.708,0.247,0.258,0.264,0.248,,,,,,,0.606,,
EKVX,0.963,0.864,0.854,0.36,0.349,0.317,0.219,0.511,0.365,0.375,0.389,1.09,0.886,0.872,0.248,0.2,0.229,0.808,0.828,0.249
EMC-BAC-2,1.21,1.08,0.812,0.86,,0.7,0.44,0.438,0.389,0.41,0.516,,0.73,0.707,0.924,0.813,0.879,1.17,0.702,0.883
EPLC-272H,0.26,0.303,0.335,0.298,0.274,0.27,0.205,0.412,0.295,0.318,0.542,0.928,0.986,1.15,1.08,0.838,0.735,0.263,0.898,1.04
H3255,1,0.781,,0.619,0.563,0.463,0.364,0.636,0.554,0.587,0.47,0.851,0.639,0.802,0.56,0.222,0.244,0.925,0.552,0.295
HARA,0.936,0.696,0.526,0.626,,0.233,0.228,0.246,0.237,0.257,0.233,0.991,0.773,0.856,0.838,0.625,0.638,0.609,0.797,0.825
HCC-15,0.533,0.26,0.185,0.411,0.354,0.396,0.3,0.253,0.211,0.22,0.145,0.86,0.932,0.955,0.816,0.777,0.617,0.338,0.575,0.831
HCC-44,1.09,1.01,0.992,1.07,1.04,1.01,,0.652,0.607,0.599,0.61,0.833,0.785,0.793,0.926,0.919,0.812,1.02,0.649,0.949
HCC-78,,,,0.807,0.646,0.897,0.523,0.936,0.879,0.847,0.888,0.373,0.297,0.367,1.06,0.755,0.86,,0.423,0.815
HCC-366,,,,0.403,0.436,0.331,0.226,0.158,0.124,0.127,0.174,0.563,0.484,0.429,1.21,0.859,1.04,,0.307,0.805
